29 compounds from patent US20170001990A1 (Genentech, Inc., priority 2014, published 2017) can be followed below.

Each structure is given as a SMILES string.

In this assay the target is Human recombinant carboxy-terminal his-tagged LDHA (amino acids 2-332) (Homo sapiens, UniProt P00338). In words: LDHA enzyme inhibition assay (NADH fluorescence). The note with it: LDHA IC50 (μM), 1 nM LDHA, NADH and pyruvate, stereochemistry of tested sample given.
Description: Test compounds were diluted in 100% DMSO with 1:3 serial dilutions. […] For the enzyme reaction, serially diluted compounds were added to a mixture of enzyme and NADH. […] Following the baseline read, pyruvate was added to the assay plates and the plates were read with excitation 340 nm and emission 480 nm for 10 minutes every 2.5 seconds. A suitable linear timeframe was selected (150-400 s) to calculate the slope of each concentration tested. The raw data were fitted to 4-parameter dose-response curves using the following equation:
fit=(A+((B−A)/(1+((C/x)̂D))))
inv=(C/((((B−A)/(y−A))−)̂(1/D)))
res=(y−fit) • where A=minimum y, B=maximum y, C=50% y max, and D=slope factor.
The curve bottom was set to the background rate (initial 5 second recording prior to addition of pyruvate) and curve top was set to no inhibitor (DMSO only) control wells rate.
The compounds of the present invention were tested for their capacity to inhibit LDHA activity and activation as described in the enzyme inhibition assay described above.
As a reminder, the IC50 is the concentration that inhibits the measured activity by half. In the case of `O=C1C[C@@](c2ccsc2)(c2ccc(N3CCOCC3)c(F)c2)NC(=O)C1Sc1ccccc1Cl` (mixture of isomers) [Example 316, (6S)-3-(2-chlorophenyl) sulfanyl-6-(3-fluoro-4-morpholine-phenyl)-6-(3-thienyl)piperidine-2,4-dione], the IC50 is 0.044 µM.

On to `O=C1C[C@](c2ccsc2)(c2cccc(Oc3ccc(F)nc3Cl)n2)NC(=O)C1Sc1ccccc1Cl` (mixture of isomers) [Example 325, (6S)-6-[6-[(2-chloro-6-fluoro-3-pyridyl)oxy]-2-pyridyl]-3-(2-chlorophenyl) sulfanyl-6-(3-thienyl) piperidine-2,4-dione], for which the IC50 worked out at 0.162 µM. Under `C[C@@H](Nc1cccc(C2(c3ccsc3)CC(=O)C(Sc3ccccc3Cl)C(=O)N2)n1)c1ccc(F)cc1` (mixture of isomers) [Example 302, 3-((2-chlorophenyl)thio)-6-(6-((1-(4-fluorophenyl)ethyl)amino)pyridin-2-yl)-6-(thiophen-3-yl) piperidine-2,4-dione] stands 0.03 µM. Next, `O=C1CC(c2ccsc2)(c2cccc(Oc3cccc(F)c3)n2)NC(=O)C1Sc1ccccc1Cl` (single isomer, unassigned) [Example 47, 3-(2-chlorophenyl) sulfanyl-6-[6-(3-fluorophenoxy)-2-pyridyl]-6-(3-thienyl)piperidine-2,4-dione]: 0.12 µM; `O=C1CC(c2ccsc2)(c2cccc(Oc3ccc(F)c(F)c3)n2)NC(=O)C1Sc1ccccc1Cl` (single isomer, unassigned) [Example 57, 3-(2-chlorophenyl)sulfanyl-6-[6-(3,4-difluoro-phenoxy)-2-pyridyl]-6-(3-thienyl)piperidine-2,4-dione]: 0.086 µM. Under `O=C1CC(c2ccsc2)(c2cccc(Oc3cncc(F)c3)n2)NC(=O)C1Sc1ccccc1Cl` (single isomer, unassigned) [Example 65, 3-(2-chlorophenyl)sulfanyl-6-[6-[(5-fluoro-3-pyridyl)oxy]-2-pyridyl]-6-(3-thienyl)piperidine-2,4-dione] stands 0.056 µM; under `O=C1CC(c2ccsc2)(c2cccc(Oc3ccc(F)c(F)c3)n2)NC(=O)C1Sc1ccccc1Cl` (single isomer, unassigned) [Example 77, 3-(2-chlorophenyl)sulfanyl-6-[6-(3,4-difluoro-phenoxy)-2-pyridyl]-6-(3-thienyl)piperidine-2,4-dione], 0.031 µM. Consider `O=C1CC(c2ccsc2)(c2cccc(Oc3ccc(F)c(F)c3)n2)NC(=O)C1Sc1ccccc1Cl` (single isomer, unassigned) [Example 78, 3-(2-chlorophenyl)sulfanyl-6-[6-(3,4-difluoro-phenoxy)-2-pyridyl]-6-(3-thienyl)piperidine-2,4-dione], for which the IC50 came to 0.023 µM. As for `O=C1CC(c2ccsc2)(c2cccc(Oc3cccc(F)c3)n2)NC(=O)C1Sc1ccccc1Cl` (single isomer, unassigned) [Example 79, 3-(2-chlorophenyl)sulfanyl-6-[6-(3-fluorophenoxy)-2-pyridyl]-6-(3-thienyl) piperidine-2,4-dione], the IC50 stood at 0.199 µM. For the compound `O=C1CC(c2ccsc2)(c2cccc(OCC(F)(F)F)n2)NC(=O)C1Sc1ccccc1Cl` (single isomer, unassigned) [Example 82, 3-(2-chlorophenyl)sulfanyl-6-(3-thienyl)-6-[6-(2,2,2-trifluoroethoxy)-2-pyridyl]piperidine-2,4-dione], the IC50 came to 0.049 µM. Next, `O=C1CC(c2ccsc2)(c2cccc(Oc3ccc(F)c(Cl)c3)n2)NC(=O)C1Sc1ccccc1Cl` (single isomer, unassigned) [Example 83, 6-(6-(3-chloro-4-fluoro-phenoxy)pyridin-2-yl)-3-((2-chlorophenyl)thio)-6-(thiophen-3-yl) piperidine-2,4-dione]: 0.013 µM; `O=C1CC(c2ccsc2)(c2cccc(OCC3CC3)n2)NC(=O)C1Sc1ccccc1Cl` (single isomer, unassigned) [Example 84, 3-(2-chlorophenyl)sulfanyl-6-[6-(cyclopropyl-methoxy)-2-pyridyl]-6-(3-thienyl)piperidine-2,4-dione]: 0.008 µM; `O=C1CC(c2ccsc2)(c2cccc(OCC(F)(F)F)n2)NC(=O)C1Sc1ccccc1Cl` (single isomer, unassigned) [Example 86, 3-(2-chlorophenyl)sulfanyl-6-(3-thienyl)-6-[6-(2,2,2-trifluoroethoxy)-2-pyridyl]piperidine-2,4-dione]: 0.022 µM. For the compound `O=C1CC(c2ccsc2)(c2cccc(OCC(F)(F)F)n2)NC(=O)C1Sc1ccccc1Cl` (single isomer, unassigned) [Example 87, 3-(2-chlorophenyl)sulfanyl-6-(3-thienyl)-6-[6-(2,2,2-trifluoroethoxy)-2-pyridyl]piperidine-2,4-dione], the IC50 is 0.01 µM. Turning to `O=C1CC(c2ccsc2)(c2cccc(Oc3cccc4ncccc34)n2)NC(=O)C1Sc1ccccc1Cl` (single isomer, unassigned) [Example 91, 5-((2-chlorophenyl)thio)-4-hydroxy-6′-(quinolin-5-yloxy)-2-(thiophen-3-yl)-2,3-dihydro-[2,2′-bipyridin]-6(1H)-one], the IC50 was 0.011 µM. On to `O=C1CC(c2ccsc2)(c2cccc(OCC3CC3)n2)NC(=O)C1Sc1ccccc1Cl` (single isomer, unassigned) [Example 93, 3-(2-chlorophenyl)sulfanyl-6-[6-(cyclopropyl-methoxy)-2-pyridyl]-6-(3-thienyl)piperidine-2,4-dione], for which the IC50 stood at 0.319 µM. As for `O=C1CC(c2ccsc2)(c2cccc(OCC3CC3)n2)NC(=O)C1Sc1ccccc1Cl` (single isomer, unassigned) [Example 97, 3-(2-chlorophenyl)sulfanyl-6-[6-(cyclopropyl-methoxy)-2-pyridyl]-6-(3-thienyl)piperidine-2,4-dione], the IC50 stood at 0.03 µM. Consider `O=C1CC(c2ccsc2)(c2cccc(OC3CCC(O)C3)n2)NC(=O)C1Sc1ccccc1Cl` (single isomer, unassigned) [Example 104, 3-((2-chlorophenyl)thio)-6-(6-((3-hydroxycyclo-pentyl)oxy)pyridin-2-yl)-6-(thiophen-3-yl) piperidine-2,4-dione], for which the half-maximal inhibitory concentration (IC50) came to 0.118 µM. Take `O=C1CC(c2ccsc2)(c2cccc(OC3CCC(O)C3)n2)NC(=O)C1Sc1ccccc1Cl` (single isomer, unassigned) [Example 106, 3-((2-chlorophenyl)thio)-6-(6-((3-hydroxy-cyclopentyl)oxy)pyridin-2-yl)-6-(thiophen-3-yl)piperidin-2,4-dione]: the IC50 turned out to be 0.732 µM. Next, `O=C1CC(c2ccsc2)(c2cccc(Oc3ccc(F)c(Cl)c3)n2)NC(=O)C1Sc1ccccc1Cl` (single isomer, unassigned) [Example 108, 6-(6-(3-chloro-4-fluoro-phenoxy)pyridin-2-yl)-3-((2-chlorophenyl)thio)-6-(thiophen-3-yl) piperidine-2,4-dione]: 0.108 µM; `O=C1CC(c2ccsc2)(c2cccc(NCCC3CC3)n2)NC(=O)C1Sc1ccccc1Cl` (single isomer, unassigned) [Example 110, 3-(2-chlorophenyl)sulfanyl-6-[6-(2-cyclopropylethyl-amino)-2-pyridyl]-6-(3-thienyl)piperidine-2,4-dione]: 0.018 µM. Under `O=C1CC(c2ccsc2)(c2cccc(Oc3ccc(F)c(Cl)c3)n2)NC(=O)C1Sc1ccccc1Cl` (single isomer, unassigned) [Example 112, 6-(6-(3-chloro-4-fluoro-phenoxy)pyridin-2-yl)-3-((2-chlorophenyl)thio)-6-(thiophen-3-yl) piperidine-2,4-dione] stands 0.01 µM. Under `O=C1CC(c2ccsc2)(c2cccc(OCCC3CCCC3)n2)NC(=O)C1Sc1ccccc1Cl` (single isomer, unassigned) [Example 113, 3-((2-chlorophenyl)thio)-6-(6-(2-cyclopentyl-ethoxy)pyridin-2-yl)-6-(thiophen-3-yl)piperidine-2,4-dione] stands 0.014 µM; under `CC(C)(O)CCCOc1cccc(C2(c3ccsc3)CC(=O)C(Sc3ccccc3Cl)C(=O)N2)n1` (single isomer, unassigned) [Example 114, 3-((2-chlorophenyl)thio)-6-(6-((4-hydroxy-4-methyl-pentyl)oxy)pyridin-2-yl)-6-(thiophen-3-yl) piperidine-2,4-dione], 0.053 µM; under `O=C1CC(c2ccsc2)(c2cccc(Oc3cccc(C(F)F)c3)n2)NC(=O)C1Sc1ccccc1Cl` (single isomer, unassigned) [Example 115, 3-(2-chlorophenyl)sulfanyl-6-[6-[3-(difluoromethyl)phenoxy]-2-pyridyl]-6-(3-thienyl)piperidine-2,4-dione], 0.031 µM. Turning to `O=C1CC(c2ccsc2)(c2cccc(Oc3ccccc3Br)n2)NC(=O)C1Sc1ccccc1Cl` (single isomer, unassigned) [Example 116, 6-[6-(2-bromophenoxy)-2-pyridyl]-3-(2-chlorophenyl) sulfanyl-6-(3-thienyl) piperidine-2,4-dione], the IC50 was 0.376 µM. For `O=C1CC(c2ccsc2)(c2cccc(Oc3ccc4ncccc4c3)n2)NC(=O)C1Sc1ccccc1Cl` (single isomer, unassigned) [Example 117, 3-(2-chlorophenyl)sulfanyl-6-[6-(6-quinolyloxy)-2-pyridyl]-6-(3-thienyl) piperidine-2,4-dione], the concentration for half-maximal inhibition (IC50) was determined as 0.076 µM. Under `O=C1CC(c2ccsc2)(c2cccc(Cc3ccccc3)n2)NC(=O)C1Sc1ccccc1Cl` (single isomer, unassigned) [Example 118, 6-(6-benzylpyridin-2-yl)-3-((2-chloropnenyl)thio)-6-(thiophen-3-yl) piperidine-2,4-dione] stands 0.622 µM; under `CC(C)CCOc1cccc(C2(c3ccsc3)CC(=O)C(Sc3ccccc3Cl)C(=O)N2)n1` (single isomer, unassigned) [Example 119, 3-(2-chlorophenyl)sulfanyl-6-(6-isopentyloxy-2-pyridyl)-6-(3-thienyl) piperidine-2,4-dione], 0.293 µM.
